Results as given in patent US20240067632A1, “WEE1 Degrading Compounds and Uses Thereof” (Bristol-Myers Squibb Company, priority 2022, published 2024).
Like-named read-outs stand apart in the source and are kept apart here.

Tests used:
WEE1 = molecular target: T1, WEE1 (Homo sapiens, UniProt P30291+Q96SW2); experiment: WEE1-ePL degradation assay (LentiX-WEE1-ePL-GSPT1-ND cells, InCELL Hunter luminescence, 4 h); type: cell-based; details: 293T-LentiX WEE1-ePL cells; for DC50: read-out: 293T-LentiX WEE1-ePL Degradation 4 hr (EC50)
T1 construct: C-terminal ePL-tagged (DiscoverX, Fremont, CA) full-length WEE1 expression construct; expressed in transfected cells; host or cells: LentiX-HEK293T (Invitrogen), lentiviral transduction; co-expressing GSPT1-GN (G576N, lacking the first 158 amino acids)
Method: To generate LentiX-WEE1-ePL-GSPT1-ND cells for the WEE1 degradation assay, LentiX-HEK293T (Invitrogen) were transduced by lentivirus with a C-terminal ePL-tagged (DiscoverX, Fremont, CA) full-length WEE1 expression construct. […] Cells were selected and maintained in complete DMEM media (DMEM, 10% Heat Inactivated FBS, 400 μg/mL Geneticin, and 1 μg/mL puromycin at 37 C and 5% CO2). Cells were passaged every 3-4 days by reseeding 1×10^6 cells in a T150 flask.
Cells were dispensed into 384-well white plates (Corning #3570, NY) that were pre-spotted with compounds using an acoustic dispenser (Echo acoustic transfer system, Beckman Coulter Life Sciences, Carlsbad, CA) as a 10-point dose-response curve with a 3-fold dilution starting at either 1 uM or 10 uM and including a DMSO control. Twenty-five microliters of media containing 2500 cells for LentiX-oeWEE1-ePL was dispensed per well. Assay plates were incubated at 37° C. with 5% CO2 for four hours (WEE1) After incubation, 25 μL of the InCELL Hunter™ Detection Reagent Working Solution (DiscoverX, Fremont, CA) was added to each well and incubated at room temperature for 30 minutes protected from light. After 30 minutes, luminescence was read on a PHERAstar luminometer (Cary, NC).
To determine the half-maximal effective concentration (EC50) values for WEE1-ePL degradation, a four parameter logistic model was used: (Sigmoidal Dose-Response Model) (FIT=(A+((B−A)/1+((C/x)^D)))) where C is the inflection point (EC50), D is the Hill slope, and A and B are the low and high limits of the fit respectively). The lower limit of the fit (value A) is referred to as Ymin. […] The maximum limit constraint, Ymax, is similarly derived using DMSO control. The curves were processed and evaluated using Activity Base (IDBS, Alameda, CA).

MKN45 cells = experiment: MKN45 cell proliferation assay (Cell-Titer-Glo, 120 h); type: cell-based; details: for EC50: Homo sapiens, MKN-45, 120 h, Cell-Titer-Glo, read-out: MKN45 Cell Prolif. 120 hr (EC50); for MKN45 Cell Prolif. 120 hr (Ymin-Obs): minimal percent of DMSO control observed in the concentrations tested
Method: MKN45 cells were obtained from Celgene internal cell banks and cultured in RPMI complete media (RPMI-1640, 1× Penicillin/Streptomycin, 1× glutamine, 1× Sodium Pyruvate, Non-essential Amino Acids, 10% Fetal Bovine serum, all component from Thermo-Fisher). Compounds were dispensed into 384-well plates using an HP DE300 compound printer in triplicate with 8 compounds on each plate. For each compound, a 10-point dose response was printed at half-log dilutions starting at either 1 uM or 10 uM. The DMSO concentration was kept constant for a final assay concentration of 0.1% per well assuming 50 ul final media volume. Compound plates were sealed and frozen at −20 C until use.
For each assay batch, compound plates were thawed and allowed to reach room temperature, and cells were seeded at 400 cells per well in 50 ul complete RPMI media. After 120 hours of incubation at 37 C and 5% CO2, cells were lysed by addition of 25 μL of Cell-Titer-Glo Reagent (Promega Corporation, Madison, WI), as per manufacturer's instructions, protected from light, shaken for 45 minutes, and total luminescence read by a Perkin Elmer Envision plate reader. Total luminescence signal is linearly correlated with cell number remaining in the well.
Luminescence data was processed per plate by subtracting reagent-only “blank” well luminescence from all measured values and calculating a percent of DMSO control value for each treatment well. Then, to determine the half-maximal effective concentration (EC50) values for cell growth inhibition, a four parameter logistic model was fit to the data for each DMSO-normalized compound: Sigmoidal Dose-Response Model: (FIT=(A+((B−A)/1+((C/x)^D)))) where C is the inflection point (EC50), D is the Hill slope, and A and B are the low and high limits of the fit respectively. The lower limit of the fit (value A) is referred to as Ymin-calculated. The minimal percent of DMSO control that is observed in the concentrations tested for each compound is labeled as “Ymin-obs”, and was recorded and reported in the tables. Sigmoidal fit curves were processed and evaluated using Activity Base (IDBS, Alameda, CA).

[1] = lower limit of the fit (0 = luciferase inhibitor, Ymax = DMSO control)
[2] = lower limit of the fit (Ymin=0 luciferase inhibitor, Ymax DMSO control)

| 293T-LentiX WEE1-ePL Degradation 4 hr (Ymin) (WEE1; [1]) | DC50 (WEE1) [nM] | EC50 (MKN45 cells; growth inhibition) [nM] | 293T-LentiX WEE1-ePL Degradation 4 hr (Ymin) (WEE1; [2]) | EC50 (MKN45 cells) [nM] | Compound | MKN45 Cell Prolif. 120 hr (Ymin-Obs) (MKN45 cells) |
| --- | --- | --- | --- | --- | --- | --- |
| 38 | 148 | 883 |  |  | O=C1CCC(N2Cc3cc(O[C@H]4CCN(Cc5ccc6cnncc6c5)C4)ccc3C2=O)C(=O)N1 (stereo partly drawn) [3-(1-oxo-5-{[(3S)-1-[(phthalazin-6-yl)methyl]pyrrolidin-3-yl]oxy}-2,3-dihydro-1H-isoindol-2-yl)piperidine-2,6-dione] | 16.7 |
| 27 | 3.02 | 25.2 |  |  | CCc1ccc2cc(CN3CC[C@H](Oc4ccc5c(c4)CN(C4CCC(=O)NC4=O)C5=O)C3)ccc2n1 (stereo partly drawn) [3-(5-{[(3S)-1-[(2-ethylquinolin-6-yl)methyl]pyrrolidin-3-yl]oxy}-1-oxo-2,3-dihydro-1H-isoindol-2-yl)piperidine-2,6-dione] | 12.49 |
|  | 105 |  | 22.61 | 45.8 | O=C1CC[C@H](N2Cc3cc(O[C@@H]4CN(Cc5ccc6nc(C7CCOCC7)ncc6c5)CC4(F)F)ccc3C2=O)C(=O)N1 [(3S)-3-(5-{[(3R)-4,4-difluoro-1-{[2-(oxan-4-yl)quinazolin-6-yl]methyl}pyrrolidin-3-yl]oxy}-1-oxo-2,3-dihydro-1H-isoindol-2-yl)piperidine-2,6-dione] | 10.37 |
| 32.69 | 14.6 | 104 |  |  | O=C1CCC(N2Cc3cc(O[C@H]4CCN(Cc5cccc6ncccc56)C4)ccc3C2=O)C(=O)N1 (stereo partly drawn) [3-(1-oxo-5-{[(3S)-1-[(quinolin-5-yl)methyl]pyrrolidin-3-yl]oxy}-2,3-dihydro-1H-isoindol-2-yl)piperidine-2,6-dione] | 19 |
| 27.49 | 3.05 | 7.92 |  |  | N#Cc1ccc2cc(CN3CC[C@H](Oc4ccc5c(c4)CN(C4CCC(=O)NC4=O)C5=O)C3)ccc2n1 (stereo partly drawn) [6-{[(3S)-3-{[2-(2,6-dioxopiperidin-3-yl)-1-oxo-2,3-dihydro-1H-isoindol-5-yl]oxy}pyrrolidin-1-yl]methyl}quinoline-2-carbonitrile] | 9.504 |
|  | 1.25 |  | 25.45 | 0.558 | COC[C@@H]1CN(Cc2ccc3nc([C@H]4CCOC(C)(C)C4)ccc3c2)C[C@H]1Oc1ccc2c(c1)CN([C@H]1CCC(=O)NC1=O)C2=O [(3S)-3-(5-{[(3S,4S)-1-({2-[(4S)-2,2-dimethyloxan-4-yl]quinolin-6-yl}methyl)-4-(methoxymethyl)pyrrolidin-3-yl]oxy}-1-oxo-2,3-dihydro-1H-isoindol-2-yl)piperidine-2,6-dione] | 8.285 |
| 37 | 67.5 | 59.7 |  |  | CN1CC[C@H](c2ccc3cc(CN4CC[C@H](Oc5ccc6c(c5)CN(C5CCC(=O)NC5=O)C6=O)C4)ccc3n2)C1 (stereo partly drawn) [3-(5-{[(3S)-1-({2-[(3S)-1-methylpyrrolidin-3-yl]quinolin-6-yl}methyl)pyrrolidin-3-yl]oxy}-1-oxo-2,3-dihydro-1H-isoindol-2-yl)piperidine-2,6-dione] | 12.73 |
| 38 | 14 | 13 |  |  | O=C1CCC(N2Cc3cc(O[C@H]4CCN(Cc5ccc6nc(N7C[C@H]8COC[C@H]8C7)ncc6c5)C4)ccc3C2=O)C(=O)N1 (stereo partly drawn) [3-(5-{[(3S)-1-({2-[(3aR,6aS)-hexahydro-1H-furo[3,4-c]pyrrol-5-yl]quinazolin-6-yl}methyl)pyrrolidin-3-yl]oxy}-1-oxo-2,3-dihydro-1H-isoindol-2-yl)piperidine-2,6-dione] | 12.43 |
| 24.72 | 5.42 | 7.29 |  |  | O=C1CCC(N2Cc3cc(O[C@H]4CCN(Cc5ccc6nc(C(F)(F)F)ccc6c5)C4)ccc3C2=O)C(=O)N1 (stereo partly drawn) [3-(1-oxo-5-{[(3S)-1-{[2-(trifluoromethyl)quinolin-6-yl]methyl}pyrrolidin-3-yl]oxy}-2,3-dihydro-1H-isoindol-2-yl)piperidine-2,6-dione] | 8.76 |
| 36 | 37.6 | 19.9 |  |  | CNC1(c2ccc3cc(CN4CC[C@H](Oc5ccc6c(c5)CN(C5CCC(=O)NC5=O)C6=O)C4)ccc3n2)COC1 (stereo partly drawn) [3-(5-{[(3S)-1-({2-[3-(methylamino)oxetan-3-yl]quinolin-6-yl}methyl)pyrrolidin-3-yl]oxy}-1-oxo-2,3-dihydro-1H-isoindol-2-yl)piperidine-2,6-dione] | 9.16 |
| 31 | 5.41 | 16.2 |  |  | CC(C)(O)c1ccc2cc(CN3CC[C@H](Oc4ccc5c(c4)CN(C4CCC(=O)NC4=O)C5=O)C3)ncc2c1 (stereo partly drawn) [3-(5-{[(3S)-1-{[7-(2-hydroxypropan-2-yl)isoquinolin-3-yl]methyl}pyrrolidin-3-yl]oxy}-1-oxo-2,3-dihydro-1H-isoindol-2-yl)piperidine-2,6-dione] | 7.18 |
|  | 0.726 |  | 25.48 | 0.247 | COC[C@@H]1CN(Cc2ccc3nc([C@@H]4CCOC(C)(C)C4)ccc3c2)C[C@H]1Oc1ccc2c(c1)CN([C@H]1CCC(=O)NC1=O)C2=O [(3S)-3-(5-{[(3S,4S)-1-({2-[(4R)-2,2-dimethyloxan-4-yl]quinolin-6-yl}methyl)-4-(methoxymethyl)pyrrolidin-3-yl]oxy}-1-oxo-2,3-dihydro-1H-isoindol-2-yl)piperidine-2,6-dione] | 7.692 |
| 30.52 | 79.2 | 2230 |  |  | O=C1CCC(N2C(=O)c3ccc(O[C@H]4CCN(Cc5cccc6ncccc56)C4)cc3C2=O)C(=O)N1 (stereo partly drawn) [2-(2,6-dioxopiperidin-3-yl)-5-{[(3S)-1-[(quinolin-5-yl)methyl]pyrrolidin-3-yl]oxy}-2,3-dihydro-1H-isoindole-1,3-dione] | 44.93 |
| 32 | 2.15 | 3.59 |  |  | O=C1CCC(N2Cc3cc(O[C@H]4CCN(Cc5ccc6nc([C@@H]7CCCOC7)ccc6c5)C4)ccc3C2=O)C(=O)N1 (stereo partly drawn) [3-(5-{[(3S)-1-({2-[(3S)-oxan-3-yl]quinolin-6-yl}methyl)pyrrolidin-3-yl]oxy}-1-oxo-2,3-dihydro-1H-isoindol-2-yl)piperidine-2,6-dione] | 10.6 |
| 29.6 | 9.38 | 33.6 |  |  | Cc1ccc2ncc(CN3CC[C@H](Oc4ccc5c(c4)CN(C4CCC(=O)NC4=O)C5=O)C3)cc2c1 (stereo partly drawn) [3-(5-{[(3S)-1-[(6-methylquinolin-3-yl)methyl]pyrrolidin-3-yl]oxy}-1-oxo-2,3-dihydro-1H-isoindol-2-yl)piperidine-2,6-dione] | 13.08 |
